The values that follow come from patent publication US20210252159A1, “CONJUGATES OF CARTILAGE-HOMING PEPTIDES” (priority 2018, published 2021).

Where two headings read alike, the source gives them in different places. Positions of bridges follow the written chain, without caps; N, C: chain ends. Residues, ends and D or L forms follow the SMILES beside them. *: point of attachment. X6 = C[C@@H]1C[C@H]2[C@@H]3CCC4=CC(=O)C=C[C@]4(C)[C@@]3(F)[C@@H](O)C[C@]2(C)[C@@]1(O)C(=O)COC(=O)CC1(CC(=O)*)CCCC1; X5 = C[C@@H]1C[C@H]2[C@@H]3CCC4=CC(=O)C=C[C@]4(C)[C@@]3(F)[C@@H](O)C[C@]2(C)[C@@]1(O)C(=O)COC(=O)CCCCC(=O)*

As a reminder, the half-life is how long it takes for the measured level to halve.

The nature of data set [1]: Hydrolysis assay of peptide-drug conjugates in rat plasma (free drug by LC/MS). It is filed as in vitro ADME. The conditions noted are these: 37° C. Here is the method: Peptide-drug conjugate peptide(SEQ ID NO: 105)-DMA-dCIC was incubated in rat plasma at 37° C. Samples were removed at regular intervals, processed by solvent extraction, and analyzed by LC/MS to quantitate free dCIC. 11 time-points were measured between 5 min and 56 hours with 3 replicates per time point. The assay was repeated two times.
In order to determine hydrolysis rates, conjugates can be diluted in PBS, rat plasma, or human plasma and incubated at 37 degrees. Samples can be taken at designated time-points (e.g., 1, 2, 3, 5, 10, 15, 20, 25, 30, 45, 60, or 90 minutes and/or hours after administration). Internal standards such as triamcinolone acetonide (TAA) can be added as an internal standard, and then active agent/TAA can be extracted using acetonitrile, for example. The samples can be dried down, reconstituted, and analyzed by LC/MS. Data can be normalized using Dex AUC/TAA AUC. Percent hydrolysis can be calculated using the average ratio for active agent AUC/TAA AUC at a time point of maximal drug release. A general method can include using a lyophilized, purified peptide-drug conjugates reconstituted in DMSO following production to generate stock solution at 20 mg/mL. Each conjugate stock can be brought to 0.25 mg/mL in each hydrolysis condition (1×DPBS, human plasma and rat plasma) in triplicate and rocked at 37° C. To quantitate free active agent, 100 μl of the hydrolyzed conjugate solution can be transferred into 1 mL acetonitrile at 4° C. at which time all plasma proteins and intact conjugates can precipitate. This can be performed repeatedly to generate a series of time points (0 hr, 0.5 hr, 1 hr, 2 hr, 4 hr, 6 hr, 8 hr, 24 hr, 32 hr). The acetonitrile solution can be spun at 17,000 g for 5 minutes, and the supernatant removed and added to a 96 well block. The pellet can then be resuspended in 500 μl acetonitrile and re-pelleted as before. The supernatant can be removed and added to the same well in the block. Samples can be prepared for analysis by drying under a nitrogen stream followed by reconstitution in 110 μl 45:55 ACN:Citrate 10 mM pH 5.5. To ensure optimal recovery the block can be shaken via plate shaker at 7,000 rpm for 5 minutes during the reconstitution step. Prior to LC/MS the samples can be transferred to a 96 well plate and centrifuged at 6,500 g for 15 minutes. Analysis can be performed on an Agilent 1260 Infinity series HPLC with inline 6120 single quad MS using acetonitrile, water (+0.1% TFA) gradient (shown below) on an InfinityLab Poroshell SB-C18 column. Quantification of free active agent (or drug) can be achieved through integration of active agent peaks of the TIC.
Lyophilized, purified peptide-drug conjugates were reconstituted in DMSO following production to generate stock solution at 20 mg/mL. Each conjugate stock was brought to 0.25 mg/mL in each hydrolysis condition (1×DPBS, human plasma and rat plasma) in triplicate and rocked at 37° C.
To quantitate free dexamethasone (Dex), 100 μl of the hydrolyzed conjugate solution was transferred into 1 mL acetonitrile at 4° C. at which time all plasma proteins and intact conjugates precipitated. This was performed repeatedly to generate a series of time points (0 hr, 0.5 hr, 1 hr, 2 hr, 4 hr, 6 hr, 8 hr, 24 hr, 32 hr). The corticosteroid triamcinolone acetonide (25 μl, 0.1 mg/mL in 45:55 ACN:Citrate 10 mM pH 5.5) was supplemented into the acetonitrile solution as an internal standard. The acetonitrile solution was spun at 17,000 g for 5 minutes, and the supernatant removed and added to a 96 well block. The pellet was resuspended in 500 μl acetonitrile and re-pelleted as before. The supernatant was removed and added to the same well in the block.
Samples were prepared for analysis by drying under a nitrogen stream followed by reconstitution in 110 μl 45:55 ACN:Citrate 10 mM pH 5.5. To ensure optimal recovery the block was shaken via plate shaker at 7,000 rpm for 5 minutes during the reconstitution step. […]

The next data set deals with CIA rats. It is filed as in vivo. Here is the method:
Ankle diameter measurements were recorded daily starting on induction day 9 and continuing for the duration of the study. […] Each treatment was administered on the day of enrollment (study day 0) and repeated daily for 7 days (study day 6). Rats were euthanized 3 h after the final dose and blood and organs were collected for testing.

A short description of data set [2]: IL-1β challenge rat model, dose-ranging study: CBC, organ weights, tolerability. It is filed as in vivo, rats. The conditions noted are these: 7 hours post administration. Here is the method: IL-6 was measured in knee lavage fluid using a Luminex assay and levels were normalized to total protein in the lavage fluid (FIG. 24). Assessment of the PD inflammatory marker IL-6 in the knee joints of rats challenged with IL-1β was performed. Terminal synovial fluid was collected from all animals and analyzed by Luminex 200 for IL-6 cytokine concentrations using EMD Milliplex MAP Rat Cytokine/Chemokine Magnetic Panel ([…]-65K). […] Doses are listed as nmol/kg The masses of these doses are given below in TABLE 16. Two hours and forty-five minutes (i.e., 2.75 hrs) after administration of the test agents, animals were gently heated and blood was drawn from the tail vein for CBC analysis. Animals were then anesthetized with inhaled isoflurane and injected with 30 ng of IL-1β into the right knee (except for no IL-1β group). Four hours after administration of IL-1β (seven hours after administration of test agent) the animals were euthanized. Blood was drawn for a second CBC analysis and the right knee was lavaged for detection of IL-6 in the lavage fluid using a Luminex assay. Thymus and spleen were harvested and their organ weights determined.
In the same animals for which IL-6 secretion was measured, CBC data (e.g., lymphocyte counts) were also analyzed (FIG. 25) at an early time-point, 2.75 hrs post administration of the test article (FIG. 25A), and at euthanasia 7 hrs post administration (FIG. 25B). All treatments were administered as described above for the measurement of IL-6 secretion.
All treatments and test articles were administered as described above, except for an additional treatment group that received 510 nmol/kg of the peptide-drug conjugate peptide(SEQ ID NO: 105)-DMA-dCIC.

Where [3] appears, read: in rat plasma, free Dex, read-out: Hydrolysis half-life (converted).
The mark [4] stands for this setting: 0.05 mg/kg daily for 7 days, study day 6.

With `CC[C@H](C)[C@@H]1NC(=O)[C@@H]2CSSC[C@H](NC(=O)[C@H](CCCNC(=N)N)NC(=O)[C@@H](NC(=O)[C@H](CC(N)=O)NC(=O)[C@@H](NC(=O)[C@@H]3CCCN3C(=O)[C@@H](NC(=O)CNC(=O)[C@H](CO)NC(=O)CNC(=O)CCCCC(=O)OCC(=O)[C@@]3(O)[C@H](C)C[C@H]4[C@@H]5CCC6=CC(=O)C=C[C@]6(C)[C@@]5(F)[C@@H](O)C[C@@]43C)C(C)C)[C@@H](C)CC)C(C)C)C(=O)N[C@@H](CCCNC(=N)N)C(=O)NCC(=O)N[C@@H](CO)C(=O)N[C@@H](CCCNC(=N)N)C(=O)N[C@@H](CC(=O)O)C(=O)N[C@H]3CSSC[C@H](NC(=O)[C@H](CCCNC(=N)N)NC(=O)[C@H](CO)NC(=O)[C@H](CC(N)=O)NC1=O)C(=O)N[C@@H](Cc1c[nH]cn1)C(=O)N[C@H](C(=O)N[C@H](C(=O)N1CCC[C@H]1C(=O)O)[C@@H](C)O)CSSC[C@H](NC(=O)[C@@H]1CCCN1C(=O)[C@H](CC(=O)O)NC(=O)[C@H](CC(C)C)NC3=O)C(=O)N[C@@H](CCCNC(=N)N)C(=O)N[C@@H](CCCNC(=N)N)C(=O)N[C@@H](C)C(=O)NCC(=O)N[C@@H](CCSC)C(=O)N[C@@H](CCCNC(=N)N)C(=O)N[C@@H](Cc1ccccc1)C(=O)NCC(=O)N[C@@H](CCCNC(=N)N)C(=O)N2` [Compound 24, Peptide(SEQ ID NO: 105)-adipic acid-Dex] (X5-GSGVPINVRCRGSRDCLDPCRRAGMRFGRCINSRCHCTP-OH; disulfide 10-30, 16-35, 20-37 (inferred); C-terminus assumed), the half-life at 0.25 mg/mL is 2.8 h in data set [1] (Rat Plasma, release of free Dex, time points to 32 hr, read-out: Half-life (hours) as measured in the hydrolysis experiments (converted)) and 2.6 h in data set [1] (setting [3]).
Regarding `CC[C@H](C)[C@@H]1NC(=O)[C@@H]2CSSC[C@H](NC(=O)[C@H](CCCNC(=N)N)NC(=O)[C@@H](NC(=O)[C@H](CC(N)=O)NC(=O)[C@@H](NC(=O)[C@@H]3CCCN3C(=O)[C@@H](NC(=O)CNC(=O)[C@H](CO)NC(=O)CNC(=O)CC3(CC(=O)OCC(=O)[C@@]4(O)[C@H](C)C[C@H]5[C@@H]6CCC7=CC(=O)C=C[C@]7(C)[C@@]6(F)[C@@H](O)C[C@@]54C)CCCC3)C(C)C)[C@@H](C)CC)C(C)C)C(=O)N[C@@H](CCCNC(=N)N)C(=O)NCC(=O)N[C@@H](CO)C(=O)N[C@@H](CCCNC(=N)N)C(=O)N[C@@H](CC(=O)O)C(=O)N[C@H]3CSSC[C@H](NC(=O)[C@H](CCCNC(=N)N)NC(=O)[C@H](CO)NC(=O)[C@H](CC(N)=O)NC1=O)C(=O)N[C@@H](Cc1c[nH]cn1)C(=O)N[C@H](C(=O)N[C@H](C(=O)N1CCC[C@H]1C(=O)O)[C@@H](C)O)CSSC[C@H](NC(=O)[C@@H]1CCCN1C(=O)[C@H](CC(=O)O)NC(=O)[C@H](CC(C)C)NC3=O)C(=O)N[C@@H](CCCNC(=N)N)C(=O)N[C@@H](CCCNC(=N)N)C(=O)N[C@@H](C)C(=O)NCC(=O)N[C@@H](CCSC)C(=O)N[C@@H](CCCNC(=N)N)C(=O)N[C@@H](Cc1ccccc1)C(=O)NCC(=O)N[C@@H](CCCNC(=N)N)C(=O)N2` [Compound 26, Peptide(SEQ ID NO: 105)-3,3,-tetramethylene-glutaric acid-Dex] (X6-GSGVPINVRCRGSRDCLDPCRRAGMRFGRCINSRCHCTP-OH; disulfide 10-30, 16-35, 20-37 (inferred); C-terminus assumed), the half-life at 0.25 mg/mL in data set [1] (setting [3]) is 1.1 h.
Turning to `C[C@@H]1C[C@H]2[C@@H]3CCC4=CC(=O)C=C[C@]4(C)[C@@]3(F)[C@@H](O)C[C@]2(C)[C@@]1(O)C(=O)COP(=O)(O)O` [DexSP, Dexamethasone sodium phosphate, reference compound], in the data set on CIA rats (0.05 mg/kg), the “ankle diameter on study day 6 versus day 0, compared to vehicle” value is listed as “statistically different than vehicle”. Besides, in the data set with CIA rats (setting [4]), the “plasma lymphocyte counts as compared to vehicle” value is “significantly reduced”, the “spleen weight as compared to vehicle” value is listed as “significantly reduced” and the “thymus weight as compared to vehicle” value was “significantly reduced”. Moreover, the ankle inflammation entry in the data set with CIA rats (highest dose of 0.05 mg/kg daily for 7 days) is reported as “effective at reducing ankle inflammation”. For the same molecule, the ankle inflammation result in the data set with CIA rats (lower doses (0.001, 0.005, 0.01 mg/kg) daily for 7 days) is “indistinguishable from vehicle”. The “spleen and thymus weights at euthanasia” value in data set [2] is “reduction in the weight of both organs”.
